# Measurements as given in ChEMBL document CHEMBL1201862, “PubChem BioAssay data set” (2004).
#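 Cells were grown in 96-well plates and exposed to each compound for 48 hours at five concentrations; endpoints were interpolated linearly between bracketing concentrations, or set to the highest concentration if not reached. Abbreviation: GI50, concentration required for 50% inhibition of growth.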 The source made the active and inactive calls. No stated cut-off is given here; in the data, active = GI50 up to about 1.1 µM and inactive = higher.
# Legend:
# Experiment in all cases: NCI-60 cell line screen, 48 h
# A498 = system: A498
# A549 = system: A549
# CCRF-CEM = system: CCRF-CEM
# COLO 205 = system: COLO 205
# HCC 2998 = system: HCC 2998
# HCT-15 = system: HCT-15
# HT-29 = system: HT-29
# LOX IMVI = system: LOX IMVI
# M14 = system: M14
# MDA-MB-231 = system: MDA-MB-231
# NCI-H226 = system: NCI-H226
# NCI-H522 = system: NCI-H522
# OVCAR-4 = system: OVCAR-4
# RXF 393 = system: RXF 393
# SF-295 = system: SF-295
# SK-MEL-2 = system: SK-MEL-2
# SN12C = system: SN12C
# SR = system: SR
# U-251 = system: U-251
# UACC-62 = system: UACC-62
smiles,measurement,setting,value
CC1OC(CC(=O)O)CC2=C1C(=O)c1c(O)cccc1C2=O (stereo not given) [NANAOMYCIN],GI50,A498,900 nM (active)
same,GI50,A549,2080 nM (inactive)
same,GI50,CCRF-CEM,19.4 nM (active)
same,GI50,COLO 205,47.4 nM (active)
same,GI50,HCC 2998,468 nM (active)
same,GI50,HCT-15,53.8 nM
same,GI50,HT-29,62.4 nM (active)
same,GI50,LOX IMVI,42.1 nM (active)
same,GI50,M14,140 nM (active)
same,GI50,MDA-MB-231,218 nM (active)
same,GI50,NCI-H226,977 nM (active)
same,GI50,NCI-H522,27.8 nM (active)
same,GI50,OVCAR-4,274 nM (active)
same,GI50,RXF 393,24.2 nM (active)
same,GI50,SF-295,1080 nM (active)
same,GI50,SK-MEL-2,331 nM (active)
same,GI50,SN12C,290 nM (active)
same,GI50,SR,33.6 nM (active)
same,GI50,U-251,1030 nM (active)
same,GI50,UACC-62,116 nM (active)
